The values below come from patent US11472772B2, “S1P3 antagonists” (Teva Pharmaceutical Industries, Ltd., priority 2013, dated 2022).

Common to all, as to assay type: in vivo, rat
Test [1] concerns quisqualic acid lesioned rats. In words: Quisqualic acid (QUIS) injection in Nucleus Basalis Magnocellularis of rats: immunohistochemistry for neurodegeneration and neuroinflammation (ChAT, GFAP, OX42). From the text: (§1) The efficacy of the compounds of the invention on neurodegeneration and neuroinflammation can be evaluated with two different methodological approaches aimed to reproduce some pathological features of Alzheimer's disease: • 1) the excitotoxic insult (quisqualic acid—QUIS) in the Nucleus Basalis Magnocellularis (NBM), characterized by severe neurodegeneration of cholinergic neurons along with significant neuroinflammation. • 2) the β-amyloid peptide 25-35 (Aβ25-35) injection in NBM of rats, inducing a significant glia reaction around Aβ25-35 deposits with modest toxicity on cholinergic neurons. • Readouts are based on immunochemical analysis and are: count of cholinergic neurons (ChAT-positive), astrocytes (GFAP-positive) and microglia (OX-42 or Iba-1 positive). The analysis is performed by two different approaches, the visual scoring (blind) and the digital platform APERIO®.
Three-month old male Wistar rats (Harlan, Milan, Italy) weighing 230-250 g were used. The rats were housed in macrolon cages with ad lib food and water and maintained on a 12 h light/dark cycle at 23° C. room temperature (RT). All experiments were carried out according to the guidelines of the European Community's Council for Animal Experiments (86/609/EEC). Efforts were made to minimize the number of animals used and their suffering.
The quisqualic acid (Sigma Chemical Co., Milan, Italy; dissolved in phosphate buffer at the concentration of 0.12 M volume 0.5 μl) or 10 ug of ABeta(25-35) peptide (Bachem) dissolved PBS at the concentration of 10 μg/μl and aggregate at 37° for 2 h before injection volume 1 μl) was injected by means of an Hamilton microsyringe into the right NBM under chloral hydrate anaesthesia at the following stereotaxic coordinates: AP=−0.2, L=−2.8 from bregma and H=7 from the dura (Paxinos and Watson, 1982, Casamenti et al., 1998). Controlateral NBM were injected with PBS solution. The study was performed for 7 days after surgery. […]

For test [2], the system named is Abeta(25-35) lesioned rats. As to the kind of experiment: Abeta(25-35) peptide injection in NBM of rats: GFAP staining. To be noted: 30 mg/kg, Kruskall-Wallis.
Excerpt: as §1
(§2) Three-month old male Wistar rats (Harlan, Milan, Italy) weighing 230-250 g were used. The rats were housed in macrolon cages with ad lib food and water and maintained on a 12 h light/dark cycle at 23° C. room temperature (RT). All experiments were carried out according to the guidelines of the European Community's Council for Animal Experiments (86/609/EEC). Efforts were made to minimize the number of animals used and their suffering. […]

Test [3] concerns quisqualic acid lesioned rats. In words: Object Recognition Test (ORT) on quisqualic acid lesioned rats. The following applies: exploration time of familiar vs novel object. The method, then: QUIS-treated animals can also undergo the Object Recognition Test (ORT, measuring episodic memory) or other behavioural tests to measure the improvement of cognitive functions upon treatment with a compound of the invention.
as §2
Object recognition was evaluated according to Ennanceur and Delacour (1988) and Scali et al., (1997). […] The times spent exploring the familiar (F) and the new object (N) were recorded separately and the difference between the two exploration times was taken. […]

With `CCCC(C(=O)Nc1cnc(Br)cn1)c1cncc(Br)c1` (stereo not drawn) [Example 33, 2-(5-Bromo-pyridin-3-yl)-pentanoic acid (5-bromo-pyrazin-2-yl)-amide], in test [1] (30 and 60 mg/Kg/day p.o., QUIS lesioned rats), the “Neuroprotective effect, rat NBM ChAT-positive neuron counts (APERIO)” value is reported as “strong neuroprotective effects”. Moreover, the “Anti-neuroinflammatory effect on astrocytes, GFAP reactivity” value in test [1] (30 and 60 mg/Kg/day, QUIS lesioned rats) is on record as “strong activity on GFAP reactivity”. Besides, in test [1] (doses ranging 10 to 60 mg/kg), the “Anti-neuroinflammatory and neuroprotective activity in the in vivo assays (FIGS. 1-3)” value was “anti-neuroinflammatory and neuroprotective activity”. In test [2], the “GFAP-positive cells, quantitative analysis by visual scoring” value is reported as “p<0.05 vs vehicle group”. For the same compound, the “Cognitive functions in ORT (episodic memory)” value was “improved cognitive functions” in test [3] and “significantly ameliorates cognitive functions” in test [3] (listed as example 33).
